Data reported in PubChem BioAssay AID488890 (Southern Research Specialized Biocontainment Screening …, 2010).
Results filed as inconclusive are left out. Calls of active or inactive are those of the source. The rule behind the calls is not given here.

tested on: Mycobacterium tuberculosis non-replicating, growth inhibition; assay: growth inhibition of non-replicating M. tuberculosis (AID 488890)

Row | Compound | IC50
1 | COC(=O)c1ccc(COC(=O)CCS(=O)(=O)c2ccc(C)cc2)cc1 | 19 µM (inactive)
2 | O=C1NC(=O)C(=Cc2ccc(Oc3ccc([N+](=O)[O-])cc3)cc2)C(=O)N1 | 16.5 µM (inactive)
3 | COc1ccc(Cc2nnc(SCc3ccc([N+](=O)[O-])cc3)o2)cc1 | 3.16 µM
4 | CC(C)(C)c1cc(CN2CCN(CCO)CC2)cc(C(C)(C)C)c1O | 3.78 µM
5 | Cc1ccc(/C=C2/C(=O)NC(=O)N(CCc3ccc(F)cc3)C2=O)s1 | 16.7 µM (inactive)
6 | Cc1ccc(NC(=O)COC(=O)C(NS(=O)(=O)c2ccc(Cl)cc2)C(C)O)cc1C (stereo not given) | 22.1 µM (inactive)
7 | Cc1nc(C(=O)NNC(=O)c2ccc(Cl)cc2)c(C(F)(F)F)o1 | 13.9 µM (inactive)
8 | O=c1c2ccc(Cl)cc2nc(-c2cccc(C(F)(F)F)c2)n1O | 0.33 µM
9 | O=C(CNC(=O)c1ccc(Br)cc1)c1ccc(Br)cc1 | 18.3 µM (inactive)
10 | c1ccc(OCc2nn3c(-c4ccccn4)nnc3s2)cc1 | 23 µM (inactive)
11 | Oc1ccc(F)c2cccnc12 | 1.61 µM
12 | C=CCN1C(=O)C2(NNc3ccccc3O2)c2ccccc21 (stereo not given) | 2.25 µM
13 | CN(C)Cc1ccccc1Sc1ccc(Br)cc1 | 27.7 µM (inactive)
14 | O=C(NCc1ccc2c(c1)OCO2)c1ccc(Cl)s1 | 1.73 µM
15 | O=Cc1c(NCc2ccco2)nc2ccccn2c1=O | 4.93 µM
16 | CC(C)(C)C(=O)COc1ccccc1[N+](=O)[O-] | 17.6 µM (inactive)
17 | N/N=C(/Cc1nc2ccccc2[nH]1)c1ccc([N+](=O)[O-])cc1 | 1.06 µM
18 | O=C(N/N=C/c1ccccn1)c1ccccc1 | 14.6 µM (inactive)
19 | CC(=O)Oc1c(C)cc(Cl)cc1C(=O)Nc1ccc([N+](=O)[O-])cc1Cl | 2.71 µM
20 | Cc1ccc(C(=O)Nc2nnc(C3=COCCO3)o2)cc1C | 9.19 µM
21 | Cc1ccccc1NC(=O)C1COc2ccccc2O1 (stereo not given) | 9.25 µM
22 | COc1ccc(C(=O)OCn2nnc3ccccc3c2=O)cc1[N+](=O)[O-] | 15.8 µM (inactive)
23 | O=C(NNc1c(F)c(F)cc(F)c1F)c1cc2ccccc2oc1=O | 27.5 µM (inactive)

Row | Compound | IC50
24 | CC1CCN(C(=O)C2COc3ccccc3O2)CC1 (stereo not given) | 0.23 µM
25 | Cc1n[nH]c(=S)n1/N=C/c1ccc(OCc2ccc(Cl)cc2Cl)cc1 | 37.5 µM (inactive)
26 | Nn1c(SCCOc2ccc(Cl)cc2)nnc1-c1cccnc1 | 23.5 µM (inactive)
27 | COc1ccccc1NC(=O)c1ccc([N+](=O)[O-])o1 | 1.12 µM
28 | COc1cc(NC(=O)C/C(C)=N/NC(=O)c2cccs2)c(OC)cc1Cl | 7.93 µM
29 | CCCCOC(=O)c1ccc(OC(=O)c2cccnc2)cc1 | 13.4 µM (inactive)
30 | O=S1(=O)C=C(Sc2nnc(-c3ccccc3)o2)c2ccccc21 | < 0.1 µM
31 | COc1ccc2nc(C)cc(N/N=C/c3ccccc3)c2c1 | 2.6 µM
32 | CCC(C)n1c(=S)[nH]c2ccccc2c1=O (stereo not given) | 14.8 µM (inactive)
33 | CC1=NN(C(=O)c2ccccc2Cl)C(O)(c2ccccc2)C1 (stereo not given) | 1.43 µM
34 | CCOC(=O)Cc1ccc(NCc2ccc(Cl)cc2)cc1 | 10.8 µM (inactive)
35 | O=C(COc1ccc(Cl)cc1)NNC(=O)c1ccccn1 | 12.1 µM (inactive)
36 | CCOc1ccc(C(=O)Nc2nnc(C3=COCCO3)o2)cc1 | 22.2 µM (inactive)
37 | Cc1ccc(OC(=O)CCS(=O)(=O)c2ccc(C)cc2)cc1 | 11.8 µM (inactive)
38 | O=C(Nc1nc2ccc(F)cc2s1)c1ccccn1 | 0.11 µM
39 | CCCN1C(=O)SC(CC(=O)Nc2ccccc2)C1=O (stereo not given) | 17.5 µM (inactive)
40 | O=C(c1ccccc1)C1CN(Cc2ccccc2)CCC1(O)c1ccccc1 (stereo not given) | 3.82 µM
41 | O=c1cc(-c2ccncc2)oc2c1ccc1ccccc12 | 22.3 µM (inactive)
42 | COc1ccc2c([N+](=O)[O-])c(N3CCCC3)[nH]c2c1 | 36 µM (inactive)
43 | Cc1nc(C)c(/C(O)=C/c2nc3ccccc3oc2=O)s1 | 1.07 µM
44 | CCCCCCCCCCn1ccc(=N)cc1 | 14.5 µM (inactive)
45 | O=C(OCCCCN1C(=O)c2ccccc2C1=O)c1ccc(Br)o1 | 6.06 µM
46 | N=C1/C(=C/c2ccc(OC(=O)c3ccco3)cc2)C(=O)N=C2SC=CN12 | 5.02 µM

Row | Compound | IC50
47 | Cc1ccc(-n2c(C)cc(C3=NNC(=NC4CC4)SC3)c2C)cc1C | 7.03 µM
48 | COc1cccc(CN2CCC(N(CCc3ccccc3)Cc3ccccc3)CC2)c1OC | 14.3 µM (inactive)
49 | O=C1CC(N2CCSCC2)C(=O)N1CCc1ccccc1 (stereo not given) | 19.1 µM (inactive)
50 | COc1ccc(CCCC(=O)NCc2ccccc2)cc1C | 5.26 µM
51 | COC(=O)CCCC(=O)N1CCCC(C(=O)c2ccc(-c3ccccc3)cc2)C1 (stereo not given) | 35.8 µM (inactive)
52 | OC(CNCCc1ccc(C(F)(F)F)cc1)COc1ccc2ccccc2c1 (stereo not given) | 8.28 µM
53 | O=C(O)COc1ccc2occ(C(=O)c3ccccc3)c2c1 | 6.46 µM
54 | COc1cccc2[nH]c3c(Cl)ncnc3c12 | 17.4 µM (inactive)
55 | O=C(Nc1ccn(Cc2ccccc2)n1)c1ccc(F)cc1 | 14.8 µM (inactive)
56 | COc1ccc(C(=O)COC(=O)c2ccc(Cl)nc2)c(OC)c1 | 10.7 µM (inactive)
57 | Cn1c(-c2cccc([N+](=O)[O-])c2)cnc1NCc1cccc(F)c1 | 29.3 µM (inactive)
58 | Nc1ccc2c(c1)oc1ccccc12 | 2.05 µM
59 | O=C(OCc1ccc([N+](=O)[O-])cc1)c1cc2ccccc2oc1=O | 12.5 µM (inactive)
60 | COc1ccc(C(CCNCc2ccc(OC(C)C)cc2)C(C)C)cc1 (stereo not given) | 10.2 µM (inactive)
61 | Clc1ccc(SCCOCCN2CCc3ccccc3C2)cc1 | 13.5 µM (inactive)
62 | CN(C)S(=O)(=O)Oc1ccc(C(=O)Nc2cccc(C(F)(F)F)c2)cc1 | 13.5 µM (inactive)
63 | CC1=NN(C(=O)c2ccoc2C)C(O)(C(F)(F)F)C1 (stereo not given) | 1.63 µM
64 | CC1(C(=O)OCC(=O)Nc2nnc(-c3ccccc3)o2)CC1(Cl)Cl (stereo not given) | 3.19 µM
65 | Cc1cc(OCc2cc(C(=O)N(C)CCc3cnn(C)c3)no2)cc(C)c1Cl | 30.6 µM (inactive)
66 | CCOC(=O)Cc1c(C)nc2c(-c3ccc(Cl)cc3)c[nH]n2c1=O | 3.93 µM
67 | O=C(OCc1nnc(-c2ccccc2)o1)c1ccc(Br)o1 | 9.14 µM
68 | O=C(NC1CCOc2ccccc21)c1ccc(Cl)nc1 (stereo not given) | 1.46 µM
69 | O=C1NC(=O)N(Cc2ccco2)C(=O)/C1=C\c1cccn1CCOc1ccc(Cl)cc1 | 7.42 µM

Row | Compound | IC50
70 | CCOC(=O)CN1NC2(CCCC(C)C2)NC1=S (stereo not given) | 11.9 µM (inactive)
71 | Cc1ccc(-c2nnc(Cc3ccc([N+](=O)[O-])cc3)o2)cc1 | 1.77 µM
72 | CN(Cc1ccccc1)C(=O)c1ccc([N+](=O)[O-])o1 | 3.29 µM
73 | CC(=O)Nc1nc2ccccc2n1Cc1ccccc1Cl | 14.1 µM (inactive)
74 | COc1ccc(C(=O)NN/C(C)=C/C(=O)c2ccccc2)cc1 | 1.34 µM
75 | CCNC(=O)NC(=O)C(C)OC(=O)CCCSc1nc2ccccc2s1 (stereo not given) | 4.68 µM
76 | Cc1ccc(NC(=O)CNc2ccc(OC(C)C)cc2)cc1 | 4.11 µM
77 | O=C(N/N=C/c1ccc([N+](=O)[O-])o1)c1cc2ccccc2o1 | 0.46 µM
78 | COc1ccc(C(=O)Oc2c(CN3CCOCC3)cc(Cl)c3cccnc23)cc1OC | 15.3 µM (inactive)
79 | Nc1ccccc1C#CC(=O)c1ccccc1 | < 0.1 µM
80 | O=c1oc(/C=C/c2ccc([N+](=O)[O-])s2)nc2ccccc12 | 8.47 µM
81 | c1ccc(-c2noc(CC3CCCCC3)n2)nc1 | 1.18 µM
82 | O=C(CCc1c[nH]c2ccccc12)Nc1ncccc1O | 15.1 µM (inactive)
83 | O=C(NC(=S)Nn1cnc2c(cnn2-c2ccccc2)c1=O)c1ccccc1 | 22.2 µM (inactive)
84 | O=c1[nH]c(=O)n(Cc2ccccc2Cl)c(O)c1/C=C1/C=CC=N1 | 0.25 µM
85 | Cc1ccc(C(C)C)c(OCC(=O)OCc2c(C)noc2C)c1 | 3.51 µM
86 | CCOc1ccc(NC(=O)CCc2ccc(C)o2)cc1 | 7.77 µM
87 | COc1ccc(Nc2cc(C)nc(-n3nc(C)cc3C)n2)cc1 | 4.02 µM
88 | CC(C)Cc1nnc(NC(=O)CCS(=O)(=O)c2ccc(Cl)cc2)s1 | 5.37 µM
89 | O=C(Nc1nnc(-c2ccc(Cl)cc2)o1)c1nc2ccccc2s1 | 0.25 µM
90 | CCCOc1ccc(N2C(=O)CC(N3CCCC(C(=O)N4CCCC4)C3)C2=O)cc1 (stereo not given) | 30.1 µM (inactive)
91 | O=C(Cc1c(F)cccc1Cl)Nc1ncc([N+](=O)[O-])s1 | 12.1 µM (inactive)
92 | C/C(=N\Nc1nc2ccccc2[nH]1)c1cc2ccccc2o1 | 8.88 µM

Row | Compound | IC50
93 | COc1ccc(OC(=O)c2cc3ccccc3o2)cc1 | 18.4 µM (inactive)
94 | COc1cc2c(cc1OC)CN(CCC(=O)c1ccc(Br)cc1)CC2 | 6.03 µM
95 | O=C(Cc1ccccc1)N/N=C/c1ccc([N+](=O)[O-])s1 | 14 µM (inactive)
96 | CCOc1ccc2ccccc2c1/C=N/NC(=O)c1ccncc1 | 0.58 µM
97 | O=C(COc1ccc(Br)cc1)N/N=C1/SCC(=O)N1Cc1ccccc1 | 13 µM (inactive)
98 | O=C(N/N=C\c1ccc([N+](=O)[O-])s1)C1COc2ccccc2O1 (stereo not given) | 4.94 µM
99 | COC(=O)c1ccc(CSc2nnc(-c3ccncc3)o2)o1 | 7.22 µM
100 | O=C(COC(=O)c1cc2ccccc2oc1=O)Nc1ccc(F)cc1F | 10.3 µM (inactive)
101 | CCOC(=O)COc1ccc2c(c1)c(C(C)=O)c(C)n2Cc1ccccc1 | 4.62 µM
102 | O=C(Oc1cccc2cccnc12)c1cccc(-n2cnnn2)c1 | 22.9 µM (inactive)
103 | N[C@@H](Cc1ccccc1)c1nnc(SC/C=C/c2ccccc2)o1 | 3.49 µM
104 | CCOC(=O)c1cc(-c2csc(COc3ccccc3)n2)on1 | < 0.1 µM
105 | O=C(OCC(=O)N1CCN(c2ccccc2)CC1)c1cnc(Cl)c(Cl)c1 | 4.72 µM
106 | Cc1c([N+](=O)[O-])cnc(Sc2ccccc2)c1[N+](=O)[O-] | 6.43 µM
107 | O=C1CCC(=O)N1CNc1ccc(Oc2ccccc2)cc1 | 2.02 µM
108 | COc1ccc2cc(C(=O)NCc3ccccc3CN3CCCC3)ccc2c1 | 17.7 µM (inactive)
109 | O=C(N/N=C/c1cc(Br)cc(Br)c1O)c1cccc(N2CCCC2=O)c1 | 4.24 µM
110 | COc1ccc(OC(=O)C2CC(=O)N(c3ccc(C)cc3)C2)cc1 (stereo not given) | 9.65 µM
111 | Clc1ccc(CN2C3=NCCCN3c3ccccc32)cc1 | 12.3 µM (inactive)
112 | CCOC(=O)COc1ccc2c(c1)c(C(=O)OCC)c(C)n2CC | 10.9 µM (inactive)
113 | O=C(N/N=C\c1ccc([N+](=O)[O-])o1)c1cncc(Br)c1 | 8.55 µM
114 | CCOC(=O)C1CCN(CCCSc2ccc(Cl)cc2)CC1 | 46.4 µM (inactive)
115 | COc1ccc(C2=Nc3ccccc3OC2)cc1 | 5.2 µM
